Like-named read-outs stand apart in the source and are kept apart here.
Tests used:
[1] = molecular target: full-length BTK C481S enzyme (Homo sapiens (Human), UniProt Q06187, C481S); assay: Biochemical kinase assay BTK C481S (IMAP)
In short: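 IC50 values come from IMAP fluorescence polarization after quenching with progressive binding solution. The reaction ran 2 h at room temperature in the dark with 1.2 nM full-length C481S enzyme, 7 μM ATP and 50 nM fluorescein-labelled MBP-derived peptide, following a 1 h dark pre-incubation of compound with enzyme.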

[2] = molecular target: full-length wt-BTK enzyme (Homo sapiens (Human), UniProt Q06187); assay: Biochemical kinase assay wt-BTK (IMAP)
full-length wt-BTK enzyme, sequence (Q06187 whole entry): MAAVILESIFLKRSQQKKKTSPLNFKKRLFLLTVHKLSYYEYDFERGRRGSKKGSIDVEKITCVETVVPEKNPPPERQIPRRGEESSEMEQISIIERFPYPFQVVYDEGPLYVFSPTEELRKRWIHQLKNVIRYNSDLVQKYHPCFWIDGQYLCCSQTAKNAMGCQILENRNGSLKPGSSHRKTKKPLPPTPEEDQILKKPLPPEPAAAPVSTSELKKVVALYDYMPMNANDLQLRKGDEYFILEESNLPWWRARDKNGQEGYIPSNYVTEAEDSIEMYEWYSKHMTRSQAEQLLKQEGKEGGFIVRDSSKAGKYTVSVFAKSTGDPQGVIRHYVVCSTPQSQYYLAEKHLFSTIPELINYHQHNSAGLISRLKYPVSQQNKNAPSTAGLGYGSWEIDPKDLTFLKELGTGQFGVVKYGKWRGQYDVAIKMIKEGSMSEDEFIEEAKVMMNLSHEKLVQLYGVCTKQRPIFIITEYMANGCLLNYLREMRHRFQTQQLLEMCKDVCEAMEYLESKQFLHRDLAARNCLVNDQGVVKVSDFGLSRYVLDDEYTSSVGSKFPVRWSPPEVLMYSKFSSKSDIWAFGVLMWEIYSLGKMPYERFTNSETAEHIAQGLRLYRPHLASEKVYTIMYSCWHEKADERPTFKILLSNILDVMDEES
In short: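 Compound and enzyme (final 1.2 nM) were pre-incubated for 1 h at RT, after which the reaction was started with 4 μM ATP plus 50 nM fluorescein-MBP substrate peptide. After 2 h in the dark, the IMAP progressive binding reagent stopped the reaction, and phosphorylation was read by fluorescence polarization.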

REC-1 T474I cell lines = assay: Cell proliferation assay REC-1 BTK T474I knock-in cells (ATPlite, 72 hours); assay type: cell-based; settings: 72 hours, read-out: IC50 REC-1 T474I
In short: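 REC-1 cells carrying CRISPR knock-in mutant BTK, single-cell cloned and sequence-confirmed, were exposed to compound for 72 h and read by ATPlite luminescence. Percentage growth was calculated against the signal at the start of incubation and against untreated 0.3% DMSO wells as maximum growth.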

[3] = test system: wt-REC-1 mantle cell lymphoma cells; assay: Cell proliferation assay wt-REC-1 (ATPlite, 72 hours); assay type: cell-based; settings: read-out: IC50 wt-REC-1
In short: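 Luminescent viability read over 72 h, start-of-incubation signal recorded separately to separate growth from cell death. Percentage growth referenced to compound-free 0.3% DMSO wells; IC50 from 4-parameter logistic fit.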

[4] = test system: wt-TMD8 diffuse large B-cell lymphoma cells; assay: Cell proliferation assay wt-TMD8 (ATPlite, 120 hours); assay type: cell-based; settings: wt-TMD8 cells, 120 hours, ATPlite, read-out: IC50 wt-TMD8
In short: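 Readout is percentage growth from ATPlite 1Step luminescence after 5 days (120 h) compound treatment of wt-TMD8 lymphoma cells (1600/well, RPMI-1640 + 10% FBS). Time-zero signal separates growth inhibition from cell kill; 0.3% DMSO wells without compound define maximal growth.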

wt-BTK = wt-BTK (Homo sapiens (Human), UniProt Q06187); assay: Binding kinetics measurements (Surface Plasmon Resonance) on wt-BTK; settings: target residence time, SPR
wt-BTK, sequence (Q06187 whole entry): as above
Method: (§1) Binding kinetics measurements on wt-BTK, BTK […], BTK […], BTK […] and BTK […] (Surface Plasmon Resonance) Streptavidin-coated chips (Cat. No. BR100531), disposables and maintenance kits for Biacore were purchased from Cytiva (Eindhoven, The Netherlands). […] Remaining streptavidin was blocked with biocytin. Immobilization was performed at 4° C. Subsequent assay steps were conducted at 22° C. After changing buffer to Biacore buffer with 1% (v/v) dimethylsulfoxide (DMSO), a pre-run was performed for a period of at least 30 min at a flow rate of 30 μl/min to obtain a stable surface. The kinetic constants of the compounds were determined with single cycle kinetics with five consecutive injections with an increasing compound concentration with ranges of 3.16-316 nM. […] To circumvent problems of mass transport limitation, a flow rate of 30 μl/min was used. A blank run with the same conditions was performed before the compound was injected. The SPR sensorgrams were analyzed with Biacore Evaluation Software by using a method of double referencing. First the reference channel was subtracted from the channel containing immobilized protein. Subsequently, the reference curve obtained with buffer injections was subtracted. […] Compounds that bound according to an induced fit model were fitted with a two-state reaction model. The kinetic constants (ka, […], KD) of duplicates were geometrically averaged. […] Target residence for an induced fit model was calculated as described (Tummino and Copeland, 2008).

BTK T474I = BTK T474I (Homo sapiens (Human), UniProt Q06187, T474I); assay: Binding kinetics measurements (Surface Plasmon Resonance) on BTK T474I; settings: target residence time, SPR
BTK T474I, sequence (Q06187 whole entry T474I): as the sequence (Q06187 whole entry) above, with T474I counted along it
Method: as §1

full-length BTK C481S enzyme, sequence (Q06187 whole entry C481S): as the sequence (Q06187 whole entry) above, with C481S counted along it

SMILES	IC50 [1]	IC50 [2]	IC50 (REC-1 T474I cell lines; Homo sapiens, Rec1)	IC50 ([3]; 72 h)	IC50 ([4]; B-cell)	IC50 ([3]; 72 hours)	IC50 (REC-1 T474I cell lines)	IC50 [4]	Tau (h) wt-BTK (Act) (wt-BTK)	Tau (h) BTK T474I (Act) (BTK T474I)
COc1cc(-c2nn3c4c(cnc(N)c24)/C=C/CCCCCC(=O)N[C@@H]2CCC[C@@H]3C2)ccc1C(=O)Nc1cc(C(F)(F)F)ccn1 [Example 197]	< 5 nM	< 5 nM	100 to 500 nM	< 100 nM	< 100 nM	–	–	–	–	–
C[C@@H]1CC(=O)N[C@@H]2CCC[C@H](C2)c2nc(-c3ccc(C(=O)Nc4cc(C#N)ccn4)cc3)c3c(N)ncc(n23)/C=C/CCN1 [Example 206]	< 5 nM	< 5 nM	500 to 10000 nM	< 100 nM	< 100 nM	–	–	–	–	–
C[C@@H]1CC(=O)N[C@@H]2CC[C@H](C2)c2nc(-c3ccc(C(=O)Nc4cc(C#N)ccn4)cc3)c3c(N)ncc(n23)/C=C/CCN1 [Example 208]	< 5 nM	< 5 nM	500 to 10000 nM	–	< 100 nM	1000 to 10000 nM	–	–	–	–
Nc1ncc2n3c(nc(-c4ccc(C(=O)Nc5cc(C(F)(F)F)ccn5)cc4)c13)[C@@H]1CC[C@H](C1)NC(=O)CNCC/C=C/2 [Example 209]	< 5 nM	< 5 nM	500 to 10000 nM	< 100 nM	< 100 nM	–	–	–	–	–
COc1ccc(F)cc1C(=O)NCc1ccc(-c2nc3n4c(cnc(N)c24)/C=C/CCN[C@H](C)CC(=O)N[C@@H]2CCC[C@@H]3C2)cc1 [Example 212]	< 5 nM	< 5 nM	500 to 10000 nM	< 100 nM	< 100 nM	–	–	–	–	–
COc1ccc(F)cc1C(=O)NCc1ccc(-c2nc3n4c(cnc(N)c24)/C=C/CCN[C@H](C)CC(=O)N[C@@H]2CC[C@@H]3C2)cc1 [Example 214]	< 5 nM	< 5 nM	500 to 10000 nM	100 to 1000 nM	< 100 nM	–	–	–	–	–
C[C@@H]1CC(=O)N[C@@H]2CC[C@H](C2)c2nc(-c3ccc(C(=O)Nc4cc(C#N)ccn4)cc3)c3c(N)ncc(n23)/C=C/CCN1 [Example 218]	< 5 nM	< 5 nM	–	–	–	< 100 nM	500 to 10000 nM	< 100 nM	–	–
COc1ccc(F)cc1C(=O)NCc1ccc(-c2nc3n4c(cnc(N)c24)/C=C/CCNCC(=O)N[C@@H]2CC[C@@H]3C2)cc1 [Example 219]	< 5 nM	< 5 nM	500 to 10000 nM	100 to 1000 nM	< 100 nM	–	–	–	–	–
CC(=O)N1CC/C=C/c2cnc(N)c3c(-c4ccc(C(=O)Nc5cc(C(F)(F)F)ccn5)cc4)nc(n23)[C@@H]2CC[C@H](C2)NC(=O)C1 [Example 220]	< 5 nM	< 5 nM	500 to 10000 nM	1000 to 10000 nM	< 100 nM	–	–	–	–	–
COc1ccc(F)cc1C(=O)NCc1ccc(-c2nc3n4c(cnc(N)c24)/C=C/CCN(C(C)=O)CC(=O)N[C@@H]2CC[C@@H]3C2)cc1 [Example 221]	< 5 nM	< 5 nM	500 to 10000 nM	1000 to 10000 nM	< 100 nM	–	–	–	–	–
Nc1ncc2n3c(nc(-c4ccc(C(=O)Nc5cc(C6CC6)ccn5)cc4)c13)[C@@H]1CC[C@H](C1)NC(=O)CCOCC/C=C/2 [Example 223]	< 5 nM	< 5 nM	100 to 500 nM	< 100 nM	< 100 nM	–	–	–	2.52 h	–
Nc1ncc2c3c1c(-c1ccc(C(=O)Nc4cc(C(F)(F)F)ccn4)cc1)nn3[C@@H]1CN[C@H](C1)C(=O)NCCCCC/C=C/2 [Example 225]	< 5 nM	< 5 nM	500 to 10000 nM	< 100 nM	–	–	–	–	3.59 h	1.19 h
CC(=O)N1C[C@@H]2C[C@@H]1C(=O)NCCCCC/C=C/c1cnc(N)c3c(-c4ccc(C(=O)Nc5cc(C(F)(F)F)ccn5)cc4)nn2c13 [Example 226]	< 5 nM	< 5 nM	500 to 10000 nM	1000 to 10000 nM	–	–	–	–	2.76 h	–
